Reference: patent publication US10590086B2, “Pharmaceutical compound” (IOmet Pharma Ltd., priority 2014, dated 2020)

Experiments:
IDO [1] = molecular target: T1, IDO (Homo sapiens, UniProt P14902); assay: SKOV3 kynurenine cell-based assay (IDO induced by IFN-γ); design: IDO expression was induced in the SKOV3 cells by the addition of 500 ng/ml IFN-γ; endogenous in cells; host or cells: SKOV3 (human ovarian adenocarcinoma), induced with IFN-γ; details: 48 hours, read-out: SKOV3 Kynurenine cell based assay pIC50 (converted)
Summary of the method: (§1)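 Cellular kynurenine production, TDO via A172 glioblastoma and IDO via IFN-γ-stimulated SKOV3 ovarian adenocarcinoma cells, was quantified after 48 hours' compound treatment in 500 μM L-tryptophan medium, using Erhlich's reagent and absorbance at 490 nm.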

IDO [2] = molecular target: T1, IDO; assay: hIDO biochemical coupled assay; details: 45 μM L-tryptophan, read-out: hIDO biochemical assay pIC50 (converted)
TDO [3] = molecular target: T2, TDO (Homo sapiens, UniProt P48775); assay: A172 kynurenine cell-based assay; design: This assay utilised cancer cells which expressed either TDO or IDO; endogenous in cells; host or cells: A172 (human glioblastoma); details: A172 human glioblastoma cells, 48 hours, read-out: A172 Kynurenine cell based assay pIC50 (converted)
Summary of the method: as §1

TDO [4] = molecular target: T2, TDO; assay: hTDO biochemical coupled assay; details: 330 μM L-tryptophan, read-out: hTDO biochemical assay pIC50 (converted)
[5] = SKOV3 human ovarian adenocarcinoma cells, 500 ng/ml IFN-γ, 500 μM L-tryptophan

T2 sequence (P48775 whole entry): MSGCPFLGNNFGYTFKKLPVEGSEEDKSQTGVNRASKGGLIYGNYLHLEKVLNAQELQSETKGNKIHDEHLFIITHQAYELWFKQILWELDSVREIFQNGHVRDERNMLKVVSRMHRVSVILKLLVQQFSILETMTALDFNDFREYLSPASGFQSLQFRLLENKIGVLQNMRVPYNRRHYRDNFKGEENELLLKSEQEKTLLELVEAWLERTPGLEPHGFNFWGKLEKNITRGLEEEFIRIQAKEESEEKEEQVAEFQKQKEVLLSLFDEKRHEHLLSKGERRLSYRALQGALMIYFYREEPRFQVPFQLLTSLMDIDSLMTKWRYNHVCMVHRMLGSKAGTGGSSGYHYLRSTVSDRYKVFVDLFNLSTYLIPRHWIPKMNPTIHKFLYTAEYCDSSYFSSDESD
T1 sequence (P14902 whole entry): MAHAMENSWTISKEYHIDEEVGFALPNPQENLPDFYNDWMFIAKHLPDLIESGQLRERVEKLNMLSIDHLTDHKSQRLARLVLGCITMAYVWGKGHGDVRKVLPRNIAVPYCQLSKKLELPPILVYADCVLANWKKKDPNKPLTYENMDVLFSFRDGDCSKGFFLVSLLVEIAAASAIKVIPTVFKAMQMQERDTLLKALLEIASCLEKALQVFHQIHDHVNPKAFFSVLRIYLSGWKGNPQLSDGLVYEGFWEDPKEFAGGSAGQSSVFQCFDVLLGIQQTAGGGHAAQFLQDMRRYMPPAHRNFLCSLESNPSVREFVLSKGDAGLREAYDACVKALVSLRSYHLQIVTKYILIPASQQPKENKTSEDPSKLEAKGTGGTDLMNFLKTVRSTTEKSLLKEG

SMILES | IC50 (IDO [1]; [5]) [µM] | IC50 (IDO [2]; 17 minutes, room temperature) [µM] | IC50 (TDO [3]; 500 μM L-tryptophan) [µM] | IC50 (TDO [4]; 17 minutes, room temperature) [µM] | IC50 (IDO [1]; SKOV3 cells, IDO induced by 500 ng/ml IFN-γ) [µM] | IC50 (IDO [2]) [µM] | IC50 (TDO [3]) [µM] | IC50 (TDO [4]) [µM]
O=C1NC(=O)C2(CCN(c3cc(Cl)cc4[nH]ncc34)CC2)N1 [Compound 137] | < 3.16 | < 3.16 | < 3.16 | < 3.16 | – | – | – | –
Clc1cc(N2CCC(c3ccccc3)CC2)c2cn[nH]c2c1 [Compound 183] | 3.24 to 31.6 | 3.24 to 31.6 | < 3.16 | < 3.16 | – | – | – | –
CS(=O)(=O)c1ccc(-c2cc(Cl)cc3[nH]ncc23)cc1 [Compound 192, 6-chloro-4-(4-(methylsulfonyl)phenyl)-1H-indazole] | 3.24 to 31.6 | 3.24 to 31.6 | < 3.16 | < 3.16 | 5.62 | 15.5 | 0.0245 | 0.129
CC(=O)NC1CCN(c2cc(Cl)cc3[nH]ncc23)C1 (centres unmarked) [Compound 198] | 3.24 to 31.6 | 3.24 to 31.6 | < 3.16 | < 3.16 | – | – | – | –
NC(=O)C1CCCN(c2cc(Cl)cc3[nH]ncc23)C1 (centres unmarked) [Compound 199] | 32.4 to 100 | > 100 | < 3.16 | < 3.16 | – | – | – | –
OC1(c2ccccc2)CCN(c2cc(Cl)cc3[nH]ncc23)CC1 [Compound 207] | 3.24 to 31.6 | 3.24 to 31.6 | < 3.16 | < 3.16 | – | – | – | –
CN(C)C(=O)C1CCCN(c2cc(Cl)cc3[nH]ncc23)C1 (centres unmarked) [Compound 209] | 32.4 to 100 | > 100 | 32.4 to 100 | 32.4 to 100 | – | – | – | –
CNC(=O)C1CCCN(c2cc(Cl)cc3[nH]ncc23)C1 (centres unmarked) [Compound 210] | 32.4 to 100 | > 100 | 3.24 to 31.6 | 3.24 to 31.6 | – | – | – | –
Cc1nc2c([nH]1)CN(c1cc(Cl)cc3[nH]ncc13)CC2 [Compound 211] | 32.4 to 100 | 32.4 to 100 | 3.24 to 31.6 | < 3.16 | – | – | – | –
Cc1nc2c([nH]1)CN(c1cc(C(F)(F)F)cc3[nH]ncc13)CC2 [Compound 212] | 32.4 to 100 | > 100 | < 3.16 | < 3.16 | – | – | – | –
CC(=O)N(C)c1cc(N2CCN(S(C)(=O)=O)CC2)c2cn[nH]c2c1 [Compound 213] | 32.4 to 100 | > 100 | 32.4 to 100 | > 100 | – | – | – | –
C[C@H]1CN(S(C)(=O)=O)CCN1c1cc(C(F)(F)F)cc2[nH]ncc12 [Compound 214] | 3.24 to 31.6 | 32.4 to 100 | < 3.16 | < 3.16 | – | – | – | –
O=C1CCC2(CCN(c3cc(Cl)cc4[nH]ncc34)CC2)N1 [Compound 215] | 3.24 to 31.6 | 3.24 to 31.6 | < 3.16 | < 3.16 | – | – | – | –
O=C1CCCC2(CCN(c3cc(Cl)cc4[nH]ncc34)CC2)N1 [Compound 216] | 3.24 to 31.6 | > 100 | < 3.16 | < 3.16 | – | – | – | –
CC(=O)N1CCC(c2cc(C3CCCC3)cc3[nH]ncc23)CC1 [Compound 217] | 32.4 to 100 | > 100 | > 100 | > 100 | – | – | – | –
CS(=O)(=O)N1CCC(c2cc(C3CCCC3)cc3[nH]ncc23)CC1 [Compound 218] | 32.4 to 100 | 32.4 to 100 | > 100 | > 100 | – | – | – | –
CC1(C)CN(c2cc(OC(F)(F)F)cc3[nH]ncc23)CCN1S(C)(=O)=O [Compound 219] | 3.24 to 31.6 | 3.24 to 31.6 | < 3.16 | < 3.16 | – | – | – | –
NC(=O)C1CCN(c2cc(Cl)cc3[nH]ncc23)CC1 [Compound 226] | 3.24 to 31.6 | < 3.16 | < 3.16 | < 3.16 | – | – | – | –
CC1(C)CN(c2cc(Cl)cc3[nH]ncc23)CCN1S(N)(=O)=O [Compound 227] | < 3.16 | < 3.16 | < 3.16 | < 3.16 | – | – | – | –
COCCS(=O)(=O)N1CCC(c2cc(Cl)cc3[nH]ncc23)CC1 [Compound 228] | 3.24 to 31.6 | 3.24 to 31.6 | < 3.16 | < 3.16 | – | – | – | –
CC(=O)N1C2CCC1CN(c1cc(Cl)cc3[nH]ncc13)C2 [Compound 231] | 3.24 to 31.6 | 3.24 to 31.6 | < 3.16 | < 3.16 | – | – | – | –
CS(=O)(=O)N1C2CCC1CN(c1cc(Cl)cc3[nH]ncc13)C2 [Compound 232] | 3.24 to 31.6 | 3.24 to 31.6 | < 3.16 | < 3.16 | – | – | – | –
